Laboratory results reported in US10428087B2, “Pyrimidinones as PI3K inhibitors” (Incyte Corporation, priority 2009, dated 2019).
Where a name gives a salt, the structure may show the parent alone.

The compounds below were run on Pfeiffer cell line (diffuse large B cell lymphoma) (assay: Pfeiffer cell proliferation assay (Example B2)). Conditions: Homo sapiens, Pfeiffer, Pfeiffer cells, [3H]-thymidine.
Format: cell-based
Description: Pfeiffer cell line (diffuse large B cell lymphoma) was purchased from ATCC (Manassas, Va.) and maintained in the culture medium recommended (RPMI and 10% FBS). To measure the anti-proliferation activity of the PI3Kδ submittals, the Pfeiffer cells were plated with the culture medium (2×10^3 cells/well/per 200 μl) into 96-well ultra-low binding plates (Corning, Corning, N.Y.), in the presence or absence of a concentration range of test compounds. After 3-4 days, [^3H]-thymidine (1 μCi/well) (PerkinElmer, Boston, Mass.) in PBS was then added to the cell culture for an additional 12 hrs before the incorporated radioactivity was separated by filtration with water through GF/B filters (Packard Bioscience, Meridenj, Conn.) and measured by liquid scintillation counting with a TopCount (Packard Bioscience). See Table 3 for data related to compounds of the invention.
CC(Nc1nc(N)nc2[nH]cnc12)c1nc2sccn2c(=O)c1-c1ccccc1 (stereo not drawn) [Example 27, 7-{1-[(2-amino-9H-purin-6-yl)amino]ethyl}-6-phenyl-5H-[1,3]thiazolo[3,2-a]pyrimidin-5-one] gave an IC50 of 100 to 500 nM.
Cc1csc2nc(C(C)Nc3nc(F)nc4[nH]cnc34)c(-c3cc(F)cc(F)c3)c(=O)n12 (stereo not drawn) [Example 18, 6-(3,5-difluorophenyl)-7-{1-[(2-fluoro-9H-purin-6-yl)amino]ethyl}-3-methyl-5H-[1,3]thiazolo[3,2-a]pyrimidin-5-one] gave an IC50 of 50 to 100 nM.
Compound Cc1csc2nc(C(C)Nc3nc(N)nc4[nH]cnc34)c(-c3cncc(F)c3)c(=O)n12 (stereo not drawn) [Example 38, 7-{1-[(2-amino-9H-purin-6-yl)amino]ethyl}-6-(5-fluoropyridin-3-yl)-3-methyl-5H-[1,3]thiazolo[3,2-a]pyrimidin-5-one trifluoroacetic acid salt] has an IC50 of 50 to 100 nM.
With Cc1cccc2nc(C(C)Nc3nc(N)nc4[nH]cnc34)c(-c3ccc(C#N)cc3)c(=O)n12 (stereo not drawn) [Example 62, 4-(2-{1-[(2-Amino-9H-purin-6-yl)amino]ethyl}-6-methyl-4-oxo-4H-pyrido[1,2-a]pyrimidin-3-yl)benzonitrile trifluoroacetic acid salt] the IC50 was 500 to 1000 nM.
With Cc1ccc(-c2c(C(C)Nc3ncnc4[nH]cnc34)nc3cccc(C)n3c2=O)cc1 (stereo not drawn) [Example 64, 6-Methyl-3-(4-methylphenyl)-2-[1-(9H-purin-6-ylamino)ethyl]-4H-pyrido[1,2-a]pyrimidin-4-one trifluoroacetic acid salt] the IC50 was 50 to 100 nM.
In the case of Cc1csc2nc(C(C)Nc3nc(N)nc4[nH]cnc34)c(-c3cccc(F)c3F)c(=O)n12 (stereo not drawn) [Example 34, 7-{1-[(2-amino-9H-purin-6-yl)amino]ethyl}-6-(2,3-difluorophenyl)-3-methyl-5H-[1,3]thiazolo[3,2-a]pyrimidin-5-one trifluoroacetic acid salt], the IC50 is reported as less than 50 nM.
Cc1csc2nc(C(C)Nc3ncnc4[nH]cnc34)c(-c3cscn3)c(=O)n12 (stereo not drawn) [Example 21, 3-methyl-7-[1-(9H-purin-6-ylamino)ethyl]-6-(1,3-thiazol-4-yl)-5H-[1,3]thiazolo[3,2-a]pyrimidin-5-one trifluoroacetic acid salt] gave an IC50 of 50 to 100 nM.
With Cc1csc2nc(C(C)Nc3ncnc4[nH]cnc34)c(-c3cncc(F)c3)c(=O)n12 (stereo not drawn) [Example 42, 6-(5-fluoropyridin-3-yl)-3-methyl-7-[1-(9H-purin-6-ylamino)ethyl]-5H-[1,3]thiazolo[3,2-a]pyrimidin-5-one trifluoroacetic acid salt] the IC50 was 100 to 500 nM.
Work on CCc1cccc2nc(C(C)Nc3ncnc4[nH]cnc34)c(-c3ccc(F)cc3)c(=O)n12 (stereo not drawn) [Example 78, 6-Ethyl-3-(4-fluorophenyl)-2-[1-(9H-purin-6-ylamino)ethyl]-4H-pyrido[1,2-a]pyrimidin-4-one trifluoroacetic acid salt] yielded an IC50 of 100 to 500 nM.
Compound Cc1csc2nc(C(C)Nc3nc(N)nc4[nH]cnc34)c(-c3cccc(Cl)c3)c(=O)n12 (stereo not drawn) [Example 32, 7-{1-[(2-amino-9H-purin-6-yl)amino]ethyl}-6-(3-chlorophenyl)-3-methyl-5H-[1,3]thiazolo[3,2-a]pyrimidin-5-one trifluoroacetic acid salt] has an IC50 of less than 50 nM.
For Cc1cccc(-c2c(C(C)Nc3nc(N)nc4[nH]cnc34)nc3cccc(C)n3c2=O)c1 (stereo not drawn) [Example 52, 2-{1-[(2-Amino-9H-purin-6-yl)amino]ethyl}-6-methyl-3-(3-methylphenyl)-4H-pyrido[1,2-a]pyrimidin-4-one trifluoroacetic acid salt], the IC50 was 50 to 100 nM.
Cc1cccc2nc(C(C)Nc3nc(N)nc4[nH]cnc34)c(-c3ccccc3F)c(=O)n12 (stereo not drawn) [Example 60, 2-{1-[(2-Amino-9H-purin-6-yl)amino]ethyl}-3-(2-fluorophenyl)-6-methyl-4H-pyrido[1,2-a]pyrimidin-4-one trifluoroacetic acid salt] gave an IC50 of 50 to 100 nM.
